Assays:
[1] = test system: CAM75 and Ng-CAM fragment in hippocampus; experiment: In vivo detection of NMDA receptor mediated CAM cleavage after kainate seizures; set-up: species or system rat
Protocol: Adult male rats were injected systemically with either: 10 mg/kg kainate (pH 7.4), 10 mg/kg kainate and 60 mg/kg ketamine (plus a second injection of 30 mg/kg ketamine one hour later), or saline. Behavioral responses were monitored (all animals in both sets injected with kainate reached seizure stages 4 or 5) and after two hours rats were anaesthetized, their hippocampi rapidly extracted and submerged in ice-cold buffer (10 mM Tris-base, 100 mM NaCl, 2 mM EDTA, and 2 mM EGTA; pH 7.4), homogenized on ice for 1 min in 5 mls of the same buffer, and then centrifuged for 3 min. at 1000 g (4° C.). The pellet was discarded and fractions of the resulting supernatants were immediately ultracentrifuged. Protein normalization and immunoblotting techniques were completed as described above. Quantification of CAM75 and the Ng-CAM fragment involved normalization of the immunoreactivity levels observed in saline injected rats to 100 percent (n=7-11; mean±S.E.M. for all groups).
Evidence for seizure induced extracellular cleavage at the consensus serine protease site was also obtained for a second adhesion molecule. Specifically, concentrations of an 80 kDa polypeptide detected by antibodies against Ng-CAM were increased by 603±140% (n=4, p=0.023) in ultrasupematant fractions from kainate injected rats.

NMDA receptors = experiment: NMDA receptor stimulation of organotypic hippocampal cultures, CAM75 immunoblot; type: cell-based, rat
[2] = test system: CAM75 (75 kDa cell adhesion molecule fragment) generation by serine protease; experiment: Incubation of hippocampal homogenates, CAM75 fragment by immunoblot; type: biochemical, rat; details: membranes incubated for one hour with 500 μM inhibitor; controls 45±8%; n=3-5, p=0.03
Protocol: Hippocampi were rapidly extracted from adult male Sprague-Dawley rats and submerged in ice-cold buffer (10 mM Tris-base, 100 mM NaCl; pH 7.4) homogenized on ice for 1 min in 5 mls of the same buffer and then centrifuged for 3 min. at 1000 g (4° C.). The pellet was discarded and the resulting supernatant was immediately incubated at 37° C. with or without EDTA, EGTA, or AEBSF. After incubation, samples were ultracentrifuged (as above) and processed for immunoblotting. Quantification of immunoblots was performed by densitometry with normalization of the immunoreactivity levels at 0 minutes to 100 percent (n=4 or 5; mean±S.E.M. for all time points).
Similar results are obtained with brain homogenates, where a 65 kDa fragment and CAM75 are produced upon incubation in the presence of EDTA or EGTA (see FIG. 1). As noted, fragments similar in size to CAM75 are generated by cleavage of any of several NCAM relatives by serine-type proteases. That CAM75 also arises from an enzyme of this type was confirmed with the selective inhibitor 4-(2-Aminoethyl)-benzenesulfonyl fluoride (AEBSF); a 12±8% increase in the fragment occurred in membranes incubated for one hour with 500 μM of the inhibitor while a 45±8% increase was obtained in controls (n=3-5; p=0.03).

[3] = test system: endogenous protease(s) found in hippocampal ultrasupernatants; experiment: Cleavage of fluorescent AMC substrates by hippocampal ultrasupernatants; type: biochemical, rat; details: 100 μM substrate
Protocol: Hippocampi were rapidly extracted from adult male Sprague-Dawley rats and submerged in ice-cold artificial cerebrospinal fluid (aCSF) which consisted of (in mM): 124 NaCl, 3 KCl, 1.25 KH2PO4, 2.5 MgSO4, 3.4 CaCl2, 26 NaHCO3 and 10 glucose (pH 7.4), homogenized on ice for 1 min in 3 mls of the same buffer and then centrifuged for 5 min. at 1000 g (3° C.). The pellet was discarded and the resulting supernatant was ultracentrifuged at 200,000 g for 20 min. at 3° C. in a TLS-55 rotor (Beckman Instruments). The resulting ultrasupematant fraction was devoid of membrane-bound proteins and therefore represents a soluble protein fraction. This fraction was diluted to 50 μgs/ml in aCSF and incubated at room temperature with 100 μM of arginine linked to a fluorescent amido methyl-coumarin (AMC) substrate (Sigma Chemical Co), or to […] (Enzyme Systems Products; Livermore Cailf.) in the presence of differing concentrations of the serine protease inhibitor AEBSF (4-(2-Aminoethyl)benzenesulfonyl fluoride) (Sigma Chemical Co). Fluorescence was measured in a fluorometer (Sequoia-Turner Corp.) at 430 nm with stimulation at 360 nm. Quantification of proteolytic inhibition was performed by normalization of fluorescence in control tubes (i.e. those without added AEBSF) to 0 percent.
The serine protease substrate arginine-AMC (A-AMC) and a substrate made up of the CAM serine protease target sequence (arginine-serine-lysine-arginine) (ASLA-AMC) were both cleaved when incubated with soluble protein fractions (i.e. ultrasupernatants) from the hippocampus. This assay was then used to identify drugs and dosages that prevent extracellular CAM cleavage by endogenous proteases. The serine protease inhibitor AEBSF (4-(2-Aminoethyl)-benzenesulfonyl fluoride) inhibited proteolysis of the CAM sequence (ASLA-AMC) and did so to a much greater degree than it blocked the proteolysis of A-AMC. At 250 and 1000 uM A-AMC cleavage was blocked by 15 and 33 percent, respectively, while ASLA-AMC proteolysis was blocked by 44 and 70 percent. FIG. 3 (p≦0.0001).

[4] = biological target: T1, tissue plasminogen activator (tPA) (Homo sapiens, UniProt P00750); experiment: Incubation of synthetic substrates with tPA; type: biochemical
T1 construct: purchased Sigma
T1 sequence (P00750 311-562 limits assumed, species assumed): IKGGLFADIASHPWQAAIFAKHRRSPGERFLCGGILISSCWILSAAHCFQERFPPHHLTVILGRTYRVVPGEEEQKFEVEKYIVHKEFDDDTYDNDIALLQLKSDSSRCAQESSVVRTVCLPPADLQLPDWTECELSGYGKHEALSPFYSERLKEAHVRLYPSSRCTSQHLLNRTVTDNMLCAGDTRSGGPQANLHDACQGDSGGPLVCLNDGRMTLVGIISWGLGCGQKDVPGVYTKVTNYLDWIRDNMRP
T1 sequence (P00750 36-310 partner limits assumed, species assumed): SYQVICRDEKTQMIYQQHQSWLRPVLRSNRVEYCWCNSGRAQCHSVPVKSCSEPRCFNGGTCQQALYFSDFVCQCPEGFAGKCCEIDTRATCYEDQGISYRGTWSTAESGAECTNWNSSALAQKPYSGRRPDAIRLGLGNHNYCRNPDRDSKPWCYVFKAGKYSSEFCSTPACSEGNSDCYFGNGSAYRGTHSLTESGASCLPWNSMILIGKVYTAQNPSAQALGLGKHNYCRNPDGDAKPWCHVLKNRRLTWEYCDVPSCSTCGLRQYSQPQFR
Protocol: 1.5 μg/ml of tissue plasminogen activator (tPA, two chain, Sigma) was incubated at 23 ° C. with 40 μM ASLA- and A-AMC substrates (with or without the inhibitor AEBSF) in a final volume of 1.3 mls aCSF. After one hour of incubation the samples were put in the fluorometer and quantification of proteolytic activity normalized the readings from the A-AMC substrate to 100 (arbitrary units).

[5] = test system: LTP in hippocampal slices (CA1 field EPSPs); experiment: Long-term potentiation in hippocampal slices (theta burst stimulation, field EPSPs); type: cell-based, rat
Protocol: Brains from male Sprague-Dawley rats (190-225 g) were rapidly removed and placed into ice cold aCSF. Hippocampi were then cut transversely into 400-μm slices and transferred to a recording chamber perfused with aCSF (35° C.), where they were exposed to a humidified gas mixture of 95% oxygen and 5% carbon dioxide. After an hour recovery period, field recordings were made with a glass recording electrode containing 2 M NaCl positioned in the stratum radiatum of CAlb. NAC (Eclectex Enterprises; Irvine Cailf.) was used to record field EPSPs elicited by delivering single stimulation pulses (0.1 ms, 1-15 μA) to one of two bipolar electrodes positioned in Schaffer-commissural projections in CAla and CAlc. Each projection was stimulated every 20 sec with 10 sec interval between each electrode. After establishing a stable baseline (10-20 min), LTP was induced using a theta burst stimulation (TBS) paradigm [J. Larson et al., Brain Res. 368, 347-350 (1986)] in one pathway. After 30 minutes the perfusion media was switched to one containing 250 μM AEBSF. Forty-five minutes later TBS was applied to the non-potentiated pathway. The AEBSF/aCSF mixture was perfused for an additional 10 minutes, after which regular aCSF was added. In another set of slices TBS stimulation was applied during aCSF perfusion, and five minutes after LTP induction 250 μM AEBSF was infused for the remainder of the experiment. Potentiation for all groups was tabulated as the percent increase above initial baseline slopes.
The magnitude of this effect varied considerably across slices but within slice differences between potentiation elicited before (control) vs. after (experimental) infusion of the drug could not be detected. However, the development of LTP in the minutes following induction was clearly different as is evident in FIG. 5A. […] Mean percent potentiation at this time point was 103±5% for experimental and 134±3% for control pathways (n=6, p=0.005).

[6] = test system: seizure-proneness (after-discharge duration); experiment: Kindling by repeated electrical stimulation of hippocampus, after-discharge duration; type: in vivo, rat; details: 50 mgs/kg injected once prior to first stimulation; tested 10 days later; control rats ~400%
Protocol: Rats were divided into two groups: Group I rats were injected with 50 mgs/kg AEBSF and Group II (control) rats were injected with saline. The rats of both groups were then stimulated by direct electrical impulses to the dentate gyrus region of the hippocampus (40 times/5 mins apart)(a paradigm known to promote “kindling”, which can be thought of as an increase in seizure-proneness). The after-discharge duration (AD-duration) was then measured in each group. After a 10 day waiting period, the rats were again stimulated (5 times/20 mins apart)(no drugs were administered). The AD-duration was again measured.

[7] = test system: pre-existing seizure proneness (after-discharge duration); experiment: Restimulation of previously kindled rats (pre-existing seizure proneness), after-discharge duration; type: in vivo, rat; details: AEBSF (50 mgs/ml) injection prior to stimulations
Text: The control group rats from III, above, were restimulated, with four of the rats of this group receiving a saline injection prior to stimulation and the remaining four rats receiving AEBSF (50 mgs/ml) injection prior to stimulations. […] The AD duration average of the control group was 207±103% of their original average, while the AD duration of the AEBSF injected rats was 26±77% of their original average.

With `CNC1(c2ccccc2Cl)CCCCC1=O` (centres unmarked) [ketamine] the “effect on kainate-induced CAM75 increase” value ([1]; 60 mg/kg plus 30 mg/kg one hour later with 10 mg/kg kainate, n=7, p=0.03) was “substantially reduced this effect”.
`CN[C@H](CC(=O)O)C(=O)O` [NMDA] was tested, and the “concentration of CAM75 in soluble fractions versus control tissue” value (NMDA receptors; 30 seconds after a 30 second infusion of NMDA, n=12, p=0.0003) was “approximately twice” and the “amount of CAM75 greater than in slices exposed to NMDA and an antagonistic drug” value (NMDA receptors; homogenates after 30 second infusion of NMDA, mean±sd, n=9, p<0.001) was 77±41%.
In the case of `C=C(C)[C@H]1CN[C@H](C(=O)O)[C@H]1CC(=O)O` [kainic acid], the “CAM75 increase in the hippocampus” value ([1]; single injection 10 mg/kg, about 45 minutes of periodic seizures, saline = 100 percent, n=11, p=0.0002) is reported as 598±85% and the “increase of 80 kDa polypeptide detected by antibodies against Ng-CAM” value ([1]; ultrasupernatant fractions from kainate injected rats, n=4, p=0.023) is reported as 603±140%.
In the case of `NCCc1ccc(S(=O)(=O)F)cc1` [AEBSF, 4-(2-Aminoethyl)-benzenesulfonyl fluoride], the “increase in the CAM75 fragment” value [2] is reported as 12±8%, the A-AMC cleavage blocked ([3]; 250 uM AEBSF) is reported as 15% and the ASLA-AMC proteolysis blocked ([3]; 250 uM AEBSF) is reported as 44%. For the same molecule, the A-AMC cleavage blocked ([3]; 1000 uM AEBSF) was 33%, the ASLA-AMC proteolysis blocked ([3]; 1000 uM AEBSF) was 70% and the “proteolytic activity of tPA blocked” value [4] was “potently blocked”. The Mean percent potentiation ([5]; 250 μM for 45 min before TBS, about one hour post-induction, control pathways 134±3%, n=6, p=0.005) was 103±5%, the “effect on already established LTP (potentiation over the subsequent hour)” value ([5]; 250 μM infused five or thirty minutes after induction) was “no effects on potentiation” and the “effect on slope, amplitude, or waveform of monosynaptic field EPSPs” value ([5]; 250 μM infused for forty-five minutes, before TBS) was “no significant effect”. For the same molecule, the “increase in AD-duration during the second testing period” value [6] was “no increase in AD-duration”, the “rats with no after discharges (no seizure-like activity)” value ([7]; four rats) was “Two out of the four” and the “AD duration as percent of original average” value ([7]; tested 10 days after, saline group 207±103%) was 26±77%.
